Experimental data from US10383859B2, “Benzo[d]thiazole derivative or salt thereof, and pharmaceutical composition including same” (Yuhan Corporation, priority 2016, dated 2019).
Like-named read-outs stand apart in the source and are kept apart here.

Test system: A549 cells
Assay: Cell migration assay (24-well transwell, laminin)
Assay type: cell-based, human
Settings: laminin 10 μg/mL in lower well, test compounds 0.39˜100 μM, migrated cells counted, read-out: Inhibitory activity against cell migration
Protocol: Cell migration was measured with a 24-well transwell having a polycarbonate membrane (8.0 μm pore size, Costar) at the bottom of the upper chamber. Each lower well was treated with laminin (10 μg/mL) and test compounds in predetermined concentrations (0.39˜100 μM) along with a serum-free RPMI1640 medium. A549 cells (Korean Cell Line Bank) were suspended in a serum-free RPMI1640 medium at a concentration of 1×10^6 cells/mL and then the test compounds were added thereto at the indicated concentrations. Each resulting solution (100 μL) was added to the upper chamber. The cells were cultured at 37° C. for 6 hours in a CO2 incubator. The upper chamber was taken out and then the cells were fixed with PBS containing 70% methyl alcohol for 10 minutes, followed by washing with PBS twice. The cells were stained with hematoxylin (Sigma) for 10 minutes and then washed with distilled water. The non-migrated cells were removed from the upper portion of the polycarbonate membrane with a cotton swab. The membranes were excised and separated from the chamber, and then mounted to a slide using a gel mount reagent (Biomeda, USA). The migrated cells (attached to the lower face of the membrane) were counted at three randomly selected sites under a microscope (×20). The cell counting was performed with the Image J program. From the counted cell numbers, each IC50 value was calculated by non-linear regression curve fit using the “GraphPad Prism” program.
The cells are pulled by laminin residing in the lower chamber and then passed through the polycarbonate membrane, so as to attach to the lower face of the membrane.

| SMILES | IC50 (Homo sapiens, A549, 6 h) | IC50 (6 hours) |
| --- | --- | --- |
| COc1ccc(CCN(Cc2ccc(C(=O)O)cc2)c2nc3cccc(F)c3s2)cc1Cl [Example 29, 4-({[2-(3-chloro-4-methoxyphenyl)ethyl](7-fluorobenzo[d]thiazol-2-yl)amino}methyl)benzoic acid] | < 1 µM | – |
| CCC(C)Oc1ccc(CCN(Cc2ccc(C(=O)O)cc2)c2nc3cccc(F)c3s2)cc1 (stereo not shown) [Example 30, 4-{[[2-(4-sec-butoxyphenyl)ethyl](7-fluorobenzo[d]thiazol-2-yl)amino]methyl}benzoic acid] | > 10 µM | – |
| CCNc1ccc(CCN(Cc2ccc(C(=O)O)cc2)c2nc3cccc(F)c3s2)cc1 [Example 31, 4-{[[2-(4-ethylaminophenyl)ethyl](7-fluorobenzo[d]thiazol-2-yl)amino]methyl}benzoic acid] | 1 to 10 µM | – |
| CCc1ccc(CCN(Cc2ccc(C(=O)O)cc2)c2nc3cccc(F)c3s2)cc1 [Example 32, 4-({[2-(4-ethylphenyl)ethyl](7-fluorobenzo[d]thiazol-2-yl)amino}methyl)benzoic acid] | < 1 µM | – |
| CC(C)c1ccc(CCN(Cc2ccc(C(=O)O)cc2)c2nc3cccc(F)c3s2)cc1 [Example 33, 4-{[(7-fluorobenzo[d]thiazol-2-yl){2-[4-(propan-2-yl)phenyl]ethyl}amino]methyl}benzoic acid] | > 10 µM | – |
| O=C(O)c1ccc(CN(CCc2cccc(F)c2F)c2nc3cccc(F)c3s2)cc1 [Example 34, 4-({[2-(2,3-difluorophenyl)ethyl](7-fluorobenzo[d]thiazol-2-yl)amino}methyl)benzoic acid] | > 10 µM | – |
| O=C(O)c1ccc(CN(CCc2cc(F)ccc2F)c2nc3cccc(F)c3s2)cc1 [Example 35, 4-({[2-(2,5-difluorophenyl)ethyl](7-fluorobenzo[d]thiazol-2-yl)amino}methyl)benzoic acid] | > 10 µM | – |
| O=C(O)c1ccc(CN(CCc2cc(F)c(F)c(F)c2)c2nc3cccc(F)c3s2)cc1 [Example 36, 4-({(7-fluorobenzo[d]thiazol-2-yl)[2-(3,4,5-trifluorophenyl)ethyl]amino}methyl)benzoic acid] | > 10 µM | – |
| COc1ccc(CCN(Cc2ccc(C(=O)O)cc2)c2nc3cccc(F)c3s2)cc1Br [Example 37, 4-({[2-(3-bromo-4-methoxyphenyl)ethyl](7-fluorobenzo[d]thiazol-2-yl)amino}methyl)benzoic acid] | > 10 µM | – |
| O=C(O)c1ccc(CN(CCc2ccc(Cl)cc2Cl)c2nc3cccc(F)c3s2)cc1 [Example 38, 4-({[2-(2,4-dichlorophenyl)ethyl](7-fluorobenzo[d]thiazol-2-yl)amino}methyl)benzoic acid] | > 10 µM | – |
| O=C(O)c1ccc(CN(CCc2ccc(F)cc2F)c2nc3cccc(F)c3s2)cc1 [Example 39, 4-({[2-(2,4-difluorophenyl)ethyl](7-fluorobenzo[d]thiazol-2-yl)amino}methyl)benzoic acid] | > 10 µM | – |
| O=C(O)c1ccc(CN(CCc2ccccc2F)c2nc3cccc(F)c3s2)cc1 [Example 41, 4-({(7-fluorobenzo[d]thiazol-2-yl)[2-(2-fluorophenyl)ethyl]amino}methyl)benzoic acid] | > 10 µM | – |
| COc1cccc(CCN(Cc2ccc(C(=O)O)cc2)c2nc3cccc(F)c3s2)c1 [Example 42, 4-({(7-fluorobenzo[d]thiazol-2-yl)[2-(3-methoxyphenyl)ethyl]amino}methyl)benzoic acid] | – | > 10 µM |
| COc1ccc(CCN(Cc2ccc(C(=O)O)cc2)c2nc3cccc(F)c3s2)c(F)c1F [Example 43, 4-({[2-(2,3-difluoro-4-methoxyphenyl)ethyl](7-fluorobenzo[d]thiazol-2-yl)amino}methyl)benzoic acid] | < 1 µM | – |
| COc1cc(C)c(CCN(Cc2ccc(C(=O)O)cc2)c2nc3cccc(F)c3s2)cc1C(C)C [Example 44, 4-{[(7-fluorobenzo[d]thiazol-2-yl){2-[4-methoxy-2-methyl-5-(propan-2-yl)phenyl]ethyl}amino]methyl}benzoic acid] | > 10 µM | – |
| COc1cc(F)c(CCN(Cc2ccc(C(=O)O)cc2)c2nc3cccc(F)c3s2)cc1F [Example 45, 4-({[2-(2,5-difluoro-4-methoxyphenyl)ethyl](7-fluorobenzo[d]thiazol-2-yl)amino}methyl)benzoic acid] | < 1 µM | – |
| COc1ccc(CCN(Cc2ccc(C(=O)O)cc2)c2nc3cccc(F)c3s2)c(Cl)c1 [Example 46, 4-({[2-(2-chloro-4-methoxyphenyl)ethyl](7-fluorobenzo[d]thiazol-2-yl)amino}methyl)benzoic acid] | > 10 µM | – |

| SMILES | IC50 (Homo sapiens, A549, 6 h) | IC50 (6 hours) |
| --- | --- | --- |
| COc1ccc(CCN(Cc2ccc(C(=O)O)cc2)c2nc3cccc(F)c3s2)c(C)c1C [Example 47, 4-({(7-fluorobenzo[d]thiazol-2-yl)[2-(4-methoxy-2,3-dimethylphenyl)ethyl]amino}methyl)benzoic acid] | > 10 µM | – |
| COc1cc(C)c(CCN(Cc2ccc(C(=O)O)cc2)c2nc3cccc(F)c3s2)cc1C [Example 48, 4-({(7-fluorobenzo[d]thiazol-2-yl)[2-(4-methoxy-2,5-dimethylphenyl)ethyl]amino}methyl)benzoic acid] | < 1 µM | – |
| COc1ccc(CCN(Cc2ccc(C(=O)O)cc2)c2nc3cccc(F)c3s2)cc1C [Example 49, 4-({(7-fluorobenzo[d]thiazol-2-yl)[2-(4-methoxy-3-methylphenyl)ethyl]amino}methyl)benzoic acid] | < 1 µM | – |
| COc1ccc(CCN(Cc2ccc(C(=O)O)cc2)c2nc3cccc(F)c3s2)c(C)c1 [Example 50, 4-({(7-fluorobenzo[d]thiazol-2-yl)[2-(4-methoxy-2-methylphenyl)ethyl]amino}methyl)benzoic acid] | < 1 µM | – |
| COc1cc(F)c(CCN(Cc2ccc(C(=O)O)cc2)c2nc3cccc(F)c3s2)c(F)c1 [Example 51, 4-({[2-(2,6-difluoro-4-methoxyphenyl)ethyl](7-fluorobenzo[d]thiazol-2-yl)amino}methyl)benzoic acid] | < 1 µM | – |
| COc1ccc(CCN(c2nc3cccc(F)c3s2)C(C)c2ccc(C(=O)O)cc2)cc1 (stereo not shown) [Example 52, 4-(1-{(7-fluorobenzo[d]thiazol-2-yl)[2-(4-methoxyphenyl)ethyl]amino}ethyl)benzoic acid] | < 1 µM | – |
| CCC(c1ccc(C(=O)O)cc1)N(CCc1ccc(OC)cc1)c1nc2cccc(F)c2s1 (stereo not shown) [Example 53, 4-(1-{(7-fluorobenzo[d]thiazol-2-yl)[2-(4-methoxyphenyl)ethyl]amino}propyl)benzoic acid] | < 1 µM | – |
| COc1ccc(CCN(c2nc3cccc(F)c3s2)C(C)c2ccc(C(=O)O)cc2)cc1F (stereo not shown) [Example 54, 4-(1-{(7-fluorobenzo[d]thiazol-2-yl)[2-(3-fluoro-4-methoxyphenyl)ethyl]amino}ethyl)benzoic acid] | > 10 µM | – |
| COc1ccc(CCN(c2nc3cccc(F)c3s2)C(C)c2ccc(C(=O)O)cc2)cc1Br (stereo not shown) [Example 55, 4-(1-{[2-(3-bromo-4-methoxyphenyl)ethyl](7-fluorobenzo[d]thiazol-2-yl)amino}ethyl)benzoic acid] | > 10 µM | – |
| CC(c1ccc(C(=O)O)cc1)N(CCc1ccc(F)cc1F)c1nc2cccc(F)c2s1 (stereo not shown) [Example 56, 4-(1-{[2-(2,4-difluorophenyl)ethyl](7-fluorobenzo[d]thiazol-2-yl)amino}ethyl)benzoic acid] | > 10 µM | – |
| CC(c1ccc(C(=O)O)cc1)N(CCc1cccc(F)c1F)c1nc2cccc(F)c2s1 (stereo not shown) [Example 57, 4-(1-{[2-(2,3-difluorophenyl)ethyl](7-fluorobenzo[d]thiazol-2-yl)amino}ethyl)benzoic acid] | > 10 µM | – |
| CC(c1ccc(C(=O)O)cc1)N(CCc1cc(F)c(F)c(F)c1)c1nc2cccc(F)c2s1 (stereo not shown) [Example 58, 4-(1-{(7-fluorobenzo[d]thiazol-2-yl)[2-(3,4,5-trifluorophenyl)ethyl]amino}ethyl)benzoic acid] | > 10 µM | – |
| CC(c1ccc(C(=O)O)cc1)N(CCc1ccc(Cl)cc1Cl)c1nc2cccc(F)c2s1 (stereo not shown) [Example 59, 4-(1-{[2-(2,4-dichlorophenyl)ethyl](7-fluorobenzo[d]thiazol-2-yl)amino}ethyl)benzoic acid] | > 10 µM | – |
| COc1ccc(CCN(c2nc3cccc(F)c3s2)C(C)c2ccc(C(=O)O)cc2)c(F)c1F (stereo not shown) [Example 60, 4-(1-{[2-(2,3-difluoro-4-methoxyphenyl)ethyl](7-fluorobenzo[d]thiazol-2-yl)amino}ethyl)benzoic acid] | < 1 µM | – |
| COc1cc(F)c(CCN(c2nc3cccc(F)c3s2)C(C)c2ccc(C(=O)O)cc2)cc1F (stereo not shown) [Example 61, 4-(1-{[2-(2,5-difluoro-4-methoxyphenyl)ethyl](7-fluorobenzo[d]thiazol-2-yl)amino}ethyl)benzoic acid] | < 1 µM | – |
| COc1cc(C)c(CCN(c2nc3cccc(F)c3s2)C(C)c2ccc(C(=O)O)cc2)cc1C(C)C (stereo not shown) [Example 62, 4-{1-[(7-fluorobenzo[d]thiazol-2-yl){2-[4-methoxy-2-methyl-5-(propan-2-yl)phenyl]ethyl}amino]ethyl}benzoic acid] | > 10 µM | – |
| COc1ccc(CCN(c2nc3cccc(F)c3s2)C(C)c2ccc(C(=O)O)cc2)c(C)c1C (stereo not shown) [Example 63, 4-(1-{(7-fluorobenzo[d]thiazol-2-yl)[2-(4-methoxy-2,3-dimethylphenyl)ethyl]amino}ethyl)benzoic acid] | < 1 µM | – |
